Among the data in patent US11958861B2, “Spirocyclic lactams as JAK2 V617F inhibitors” (Incyte Corporation, priority 2021, dated 2024) are IC50 values, retold here.

Test [1] concerns the target T1, pseudo-kinase domain (JH2, amino-acids 536-812) of human V617F mutant JAK2 (Homo sapiens, UniProt O60674, F794H/V617F/W659A/W777A).
T1 construct: pseudo-kinase domain (JH2, amino-acids 536-812 with 3 surface mutations W659A, W777A, F794H); purchased BPS Bioscience 79498; host or cells: baculovirus expression system
In words: JAK2 LanthaScreen JH2-V617F Binding Assay. The following applies: 1 hour at 25° C. How it is done:
Example C. JAK2 LanthaScreen JH2-V617F Binding Assay
(§1) JAK2 JH2-V617F binding assay utilizes pseudo-kinase domain (JH2, amino-acids 536-812 with 3 surface mutations W659A, W777A, F794H) of human V617F mutant JAK2 expressed as C-terminal His-Avi-tagged, biotinylated protein in a baculovirus expression system (BPS Bioscience, Catalog #79498). The assay was conducted in black 384-well polystyrene plates in a final reaction volume of 20 μL. JAK2 JH2-V617F (0.26 nM) was incubated with compounds (100 nL serially diluted in DMSO) in the presence of 50 nM Fluorescent JAK2-JH2 Tracer (MedChem Express Catalog #HY-102055) and 0.25 nM Streptavidin-Tb cryptate (Cisbio Part #610SATLB) in assay buffer (50 mM Tris, pH=7.5, 10 mM MgCl2, 0.01% Brij-35, 0.1% BSA, 1 mM EGTA, 5% Glycerol and 5 mM DTT). Non-specific binding was accessed in the presence of 2 mM ATP. After incubation for 1 hour at 25° C., LanthaScreen signals were read on a PHERAstar FS plate reader (BMG LABTECH). Data was analyzed with IDBS XLfit and GraphPad Prism 5.0 software using a four parameter dose response curve to determine IC50 for each compound.
(TR-FRET usually uses a lanthanide donor and a delayed reading to cut background.)

Test [2] addresses T2, catalytic domain (JH1, amino acids 826-1132) of human JAK2 (Homo sapiens, UniProt O60674).
T2 construct: catalytic domain (JH1, amino acids 826-1132) of human JAK2; purchased Carna Biosciences 08-445-20N; host or cells: baculovirus expression system
In words: JAK2 LanthaScreen JH1 Binding Assay. The following applies: 2 hours at 25° C. As to the method: Example A. JAK2 LanthaScreen JH1 Binding Assay
JAK2 JH1 binding assay utilizes catalytic domain (JH1, amino acids 826-1132) of human JAK2 expressed as N-terminal FLAG-tagged, biotinylated protein in a baculovirus expression system (Carna Biosciences, Product #08-445-20N). The assay was conducted in black 384-well polystyrene plates in a final reaction volume of 20 μL. JAK2 JH1 (1.5 nM) was incubated with compounds (100 nL serially diluted in DMSO) in the presence of 50 nM Fluorescent JAK2-JH1 Tracer and 0.5 nM Streptavidin-Tb cryptate (Cisbio Part #610SATLB) in assay buffer (50 mM Tris, pH=7.5, 10 mM MgCl2, 0.01% Brij-35, 0.1% BSA, 1 mM EGTA, 5% Glycerol and 5 mM DTT). Non-specific binding was accessed in the presence of 2 mM ATP. After incubation for 2 hours at 25° C., LanthaScreen signals were read on a PHERAstar FS plate reader (BMG LABTECH). Data was analyzed with IDBS XLfit and GraphPad Prism 5.0 software using a four parameter dose response curve to determine IC50 for each compound.

The target of test [3] is T3, pseudo-kinase domain (JH2, amino-acids 536-812) of human Wild Type JAK2 (Homo sapiens, UniProt O60674, F794H/W659A/W777A).
T3 construct: pseudo-kinase domain (JH2, amino-acids 536-812 with 3 surface mutations W659A, W777A, F794H); purchased BPS Bioscience 79463; host or cells: baculovirus expression system
In words: JAK2 LanthaScreen JH2-WT Binding Assay. Particulars: 1 hour at 25° C. As to the method:
Example B. JAK2 LanthaScreen JH2-WT Binding Assay
as §1, with “JH2-WT” for “JH2-V617F”, “Wild Type” for “V617F mutant”, “#79463).” for “#79498).”, “JH2-WT (0.145” for “JH2-V617F (0.26”

Test [4] concerns the target T4, catalytic domain (JH1, amino acids 808-1132) of human JAK2 (Homo sapiens, UniProt O60674).
T4 construct: catalytic domain (JH1, amino acids 808-1132) of human JAK2; His (N); purchased BPS Bioscience 40450; host or cells: baculovirus expression system
In words: JAK2 HTRF Enzyme Activity Assay. The test is classed as biochemical. Particulars: ATP 30 μM, read-out: ENZ 30UMATP. As to the method: Example D. JAK2 HTRF Enzyme Activity Assay
JAK2 enzyme activity assays utilize catalytic domain (JH1, amino acids 808-1132) of human JAK2 expressed as N-terminal His-tagged protein in a baculovirus expression system (BPS Bioscience, Catalog #40450). The assays was conducted in black 384-well polystyrene plates in a final reaction volume of 20 μL. JAK2 (0.015 nM) was incubated with compounds (100 nL serially diluted in DMSO) in the presence of ATP (30 μM or 1 mM) and 500 nM Biotin-labeled […] (SEQ ID NO.: 1) peptide (BioSource International, custom synthesis) in assay buffer (50 mM Tris, pH=7.5, 10 mM MgCl2, 0.01% Brij-35, 0.1% BSA, 1 mM EGTA, 5% Glycerol and 5 mM DTT) for 60 minutes at 25° C. The reactions were stopped by the addition of 10 μL of detection buffer (50 mM Tris, pH 7.8, 0.5 mg/mL BSA, 150 mM NaCl), supplemented with EDTA, LANCE Eu-W1024 anti-phosphotyrosine (PY20), (PerkinElmer, Catalog #AD0067) and Streptavidin SureLight APC (PerkinElmer Catalog #CR130-100), for a final concentration of 15 mM, 1.5 nM and 75 nM, respectively. HTRF signals were read after 30 minutes incubation at room temperature on a PHERAstar FS plate reader (BMG LABTECH). Data was analyzed with IDBS XLfit and GraphPad Prism 5.0 software using a four parameter dose response curve to determine IC50 for each compound.

Structures can show the parent of a compound that is named as a salt.

T1 sequence (O60674 536-812 V617F/W659A/W777A/F794H): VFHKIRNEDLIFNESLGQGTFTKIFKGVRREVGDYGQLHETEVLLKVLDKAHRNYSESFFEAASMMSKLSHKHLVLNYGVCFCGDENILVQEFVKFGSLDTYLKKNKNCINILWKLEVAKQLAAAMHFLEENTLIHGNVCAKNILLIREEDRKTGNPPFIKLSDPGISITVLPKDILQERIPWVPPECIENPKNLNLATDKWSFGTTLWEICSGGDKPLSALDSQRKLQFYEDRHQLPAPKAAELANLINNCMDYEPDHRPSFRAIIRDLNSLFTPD
T4 sequence (O60674 808-1132): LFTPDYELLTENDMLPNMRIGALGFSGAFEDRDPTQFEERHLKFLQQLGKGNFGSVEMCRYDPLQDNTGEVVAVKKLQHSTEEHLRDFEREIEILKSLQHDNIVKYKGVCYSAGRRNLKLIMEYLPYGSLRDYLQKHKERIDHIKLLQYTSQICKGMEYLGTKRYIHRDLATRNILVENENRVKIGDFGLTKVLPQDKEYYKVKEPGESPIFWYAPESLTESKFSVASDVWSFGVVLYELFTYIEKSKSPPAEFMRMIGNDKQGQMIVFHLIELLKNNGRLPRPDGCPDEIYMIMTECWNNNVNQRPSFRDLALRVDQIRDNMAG
T3 sequence (O60674 536-812 W659A/W777A/F794H): as the sequence (O60674 536-812 V617F/W659A/W777A/F794H) above, with F82V counted along it
T2 sequence (O60674 826-1132): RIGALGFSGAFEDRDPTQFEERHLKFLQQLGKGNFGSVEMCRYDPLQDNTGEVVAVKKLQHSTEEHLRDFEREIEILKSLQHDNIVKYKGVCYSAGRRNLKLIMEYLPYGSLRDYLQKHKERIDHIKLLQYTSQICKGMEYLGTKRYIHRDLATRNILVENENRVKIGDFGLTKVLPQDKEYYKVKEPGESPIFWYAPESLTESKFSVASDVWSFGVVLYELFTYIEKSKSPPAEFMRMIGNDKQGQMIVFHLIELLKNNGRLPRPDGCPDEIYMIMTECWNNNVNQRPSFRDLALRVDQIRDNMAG

Take “1-(Ethylsulfonyl)-2″-(3-methoxy-1-methyl-1H-pyrazol-4-yl)-6″-methyl-1″-(1-(methyl-d3)-1H-indazol-5-yl)-3″,6″-dihydro-7″H-dispiro[azetidine-3,1′-cyclobutane-3′,8″-dipyrrolo[2,3-b:3′,2′-d]pyridin]-7″-one, trifluoroacetate salt [Example 99]”: the figures for the IC50 in test [1], in test [2] and in test [3] were ≤ 100 nM, > 2500 nM and ≤ 100 nM, respectively.
Regarding “2′-(1-(1-Cyclopropylethyl)-1H-pyrazol-4-yl)-1-(ethylsulfonyl)-6′-(methyl-d3)-r-(1-methyl-1H-indazol-5-yl)-3′,6′-dihydro-7′H-spiro[azepane-4,8′-dipyrrolo[2,3-b:3′,2′-d]pyridin]-7′-one, trifluoroacetate salt [Example 104]”, the IC50 in test [4] is 100 to 500 nM; in test [1] it was ≤ 100 nM; in test [2], 100 to 500 nM; in test [3] it was ≤ 100 nM.
As to `CN1C(=O)C2(CCOC2)c2c1cnc1[nH]c(-c3ccc(CN4CCC(S(C)(=O)=O)CC4)cc3)c(-c3ccccc3)c21` (racemic) [Example 2, 6-Methyl-2-(4-((4-(methylsulfonyl)piperidin-1-yl)methyl)phenyl)-1-phenyl-3,4′,5′,6-tetrahydro-2′H,7H-spiro[dipyrrolo[2,3-b:3′,2′-d]pyridine-8,3′-furan]-7-one trifluoroacetate salt], the IC50 was > 2500 nM in test [4], ≤ 100 nM in test [1], > 2500 nM in test [2] and ≤ 100 nM in test [3].
For the compound `CN1C(=O)C2(CCN(C(=O)CC3CCOCC3)C2)c2c1cnc1[nH]c(-c3ccc(CN4CCC(S(C)(=O)=O)CC4)cc3)c(-c3ccccc3)c21` (racemic) [Example 12, 6-Methyl-2-(4-((4-(methylsulfonyl)piperidin-1-yl)methyl)phenyl)-1-phenyl-1′-(2-(tetrahydro-2H-pyran-4-yl)acetyl)-3,6-dihydro-7H-spiro[dipyrrolo[2,3-b:3′,2′-d]pyridine-8,3′-pyrrolidin]-7-one trifluoroacetate salt], the IC50 in test [4] was > 2500 nM; in test [1], 100 to 500 nM; in test [2], > 2500 nM; in test [3], 100 to 500 nM.
For `[2H]C([2H])([2H])n1ncc2cc(-c3c(-c4cnn(C)c4)[nH]c4ncc5c(c34)[C@@]3(CC[C@H](NC(=O)C4(CC(N)=O)CCC4)C3)C(=O)N5C)ccc21` (racemic) [Example 100, trifluoroacetate salt], the results for the IC50 in test [1], in test [2] and in test [3] were 500 to 1250 nM, > 2500 nM and 500 to 1250 nM, respectively.
On to `CO[C@H]1CC[C@@](CC#N)(N2CCC3(CC2)C(=O)N(C)c2cnc4[nH]c(-c5cnn(C)c5)c(-c5ccc6c(cnn6C)c5)c4c23)CC1` (single isomer, unassigned) [Example 75b, 2-(4-Methoxy-1-(6-methyl-1-(1-methyl-1H-indazol-5-yl)-2-(1-methyl-1H-pyrazol-4-yl)-7-oxo-6,7-dihydro-3H-spiro[dipyrrolo[2,3-b:3′,2′-d]pyridine-8,4′-piperidin]-1′-yl)cyclohexyl)acetonitrile], for which the IC50 in test [4] is 500 to 1250 nM; in test [1] it was ≤ 100 nM; in test [2] it was 500 to 1250 nM.
For the compound `O=C(O)C(F)(F)F.[2H]C([2H])([2H])n1ncc2cc(-c3c(-c4cnn5c4OCCC5)[nH]c4ncc5c(c34)C3(CC4(CN(S(=O)(=O)CC)C4)C3)C(=O)N5C)ccc21` [Example 98, 2″-(6,7-Dihydro-5H-pyrazolo[5,1-b][1,3]oxazin-3-yl)-1-(ethylsulfonyl)-6″-methyl-1″-(1-(methyl-d3)-1H-indazol-5-yl)-3″,6″-dihydro-7″H-dispiro[azetidine-3,1′-cyclobutane-3′,8″-dipyrrolo[2,3-b:3′,2′-d]pyridin]-7″-one, trifluoroacetate salt], the IC50 is ≤ 100 nM in test [1], > 2500 nM in test [2] and ≤ 100 nM in test [3].
Take `O=C(O)C(F)(F)F.[2H]C([2H])([2H])n1ccc(-c2[nH]c3ncc4c(c3c2-c2ccc3c(cnn3C)c2)C2(CC3(CCN(C(=O)CCC)CC3)C2)C(=O)N4C)c1` [Example 101, 1″-Butyryl-6-methyl-1-(1-methyl-1H-indazol-5-yl)-2-(1-(methyl-d3)-1H-pyrrol-3-yl)-3,6-dihydro-7H-dispiro[dipyrrolo[2,3-b:3′,2′-d]pyridine-8,1′-cyclobutane-3′,4″-piperidin]-7-one, trifluoroacetate salt]: the IC50 was ≤ 100 nM in test [1], 1250 to 2500 nM in test [2] and ≤ 100 nM in test [3].
As for `O=C(O)C(F)(F)F.[2H]C([2H])([2H])n1ccc(-c2[nH]c3ncc4c(c3c2-c2ccc3c(cnn3C([2H])([2H])[2H])c2)C2(CC3(CCN(C(=O)CCC)CC3)C2)C(=O)N4C)c1` [Example 102, 1″-Butyryl-6-methyl-1-(1-(methyl-d3)-1H-indazol-5-yl)-2-(1-(methyl-d3)-1H-pyrrol-3-yl)-3,6-dihydro-7H-dispiro[dipyrrolo[2,3-b:3′,2′-d]pyridine-8,1′-cyclobutane-3′,4″-piperidin]-7-one, trifluoroacetate salt], the IC50 was ≤ 100 nM in test [1], > 2500 nM in test [2] and ≤ 100 nM in test [3].
